Among the data in PubChem BioAssay (NCI) are GI50 and TGI values, retold here.

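Dose response: 5 concentrations. Exposure: 48 h. Format: 96-well plates. Endpoint: linear interpolation; highest concentration if not reached. Abbreviation: GI50, concentration required for 50% inhibition of growth. TGI: total growth inhibition.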

Among the test systems are NCI-H23 lung; SW-620 colon; MALME-3M melanoma; SNB-75 CNS; SR leukemia; TK-10 renal; A549 NSCLC; NCI-H522 lung.
What all share (assay): growth of human tumour cells (NCI), 48 h

Turning to `ClCc1cccc(Cn2cnc3c(Cl)nc(Cl)nc32)c1`, the GI50 with NCI-H23 lung is 2.14 µM; with SW-620 colon it was 1.57 µM; in the test with MALME-3M melanoma, 2.02 µM; with SNB-75 CNS it was 2.04 µM; with SR leukemia, 2.49 µM; in the test with TK-10 renal, 1.74 µM. The GI50 in the test with A549 NSCLC is 3.08 µM; with NCI-H522 lung, 2.72 µM. Further, the TGI in the test on NCI-H23 lung is 5.09 µM; with SW-620 colon, 3.5 µM; in the test on MALME-3M melanoma, 4.47 µM; in the test with SNB-75 CNS, 3.89 µM; in the test on SR leukemia, greater than 100 µM; with TK-10 renal it was 3.95 µM. Moreover, the TGI in the test with A549 NSCLC was determined as 9.89 µM; in the test on NCI-H522 lung, 5.32 µM.
Turning to `CC(=O)NC1(NC(C)=O)C2CC(C1Cc1ccccc1)C(C)(C)C2C` (centres undefined), the TGI in the test on NCI-H23 lung, with SW-620 colon, in the test with MALME-3M melanoma, in the test on SNB-75 CNS, in the test on SR leukemia and in the test with TK-10 renal was greater than 100 µM in each case. In addition, the TGI in the test with A549 NSCLC and in the test on NCI-H522 lung was greater than 100 µM in each case.
Consider `CC(NC(=O)Cc1ccc(C(F)(F)P(=O)(OCc2ccc([N+](=O)[O-])o2)N(C)CCCCCl)cc1)c1ccc(OCC2CCCCC2)c(C(N)=O)c1` (centres undefined), for which the GI50 was 4.11 µM in the test with NCI-H23 lung; 6.82 µM in the test with SW-620 colon; 4.62 µM in the test on MALME-3M melanoma; 4.7 µM in the test with SNB-75 CNS; 1.76 µM in the test on SR leukemia; 8.01 µM with TK-10 renal. Besides, the figures for the GI50 in the test on A549 NSCLC and in the test on NCI-H522 lung were 14.5 µM and 3.86 µM, respectively. In addition, the TGI in the test on NCI-H23 lung worked out at 15.3 µM; in the test on SW-620 colon, 15.8 µM; in the test on MALME-3M melanoma, 16.3 µM; in the test with SNB-75 CNS, 9.97 µM; with SR leukemia, 5.03 µM; with TK-10 renal it was 22.2 µM. Besides, the TGI came to 58.7 µM in the test on A549 NSCLC and 10.2 µM in the test on NCI-H522 lung.
Consider `CN(Cc1ccc(F)cc1)c1ccc(CO)c(Cl)c1`, for which the GI50 is 11.6 µM with NCI-H23 lung; 5.14 µM in the test on SW-620 colon; 24.5 µM in the test with MALME-3M melanoma; 18.4 µM in the test on SNB-75 CNS; 20.3 µM with SR leukemia; 0.203 µM with TK-10 renal. Moreover, the figures for the GI50 in the test on A549 NSCLC and in the test with NCI-H522 lung were 5.54 µM and 26.5 µM, respectively. The TGI in the test on NCI-H23 lung is greater than 72.7 µM; in the test with SW-620 colon, greater than 100 µM; in the test with MALME-3M melanoma, 71.9 µM; with SNB-75 CNS it was 89.5 µM; in the test with SR leukemia, 73.8 µM; in the test with TK-10 renal, 0.825 µM. The figures for the TGI with A549 NSCLC and with NCI-H522 lung were greater than 60.1 µM and 97.3 µM, respectively.
On to `CCCC1(CN2c3ccccc3Sc3ccc(Cl)cc32)CCN(CC)C1` (centres undefined), for which the GI50 was 1.75 µM in the test on NCI-H23 lung; 1.7 µM with SW-620 colon; 1.88 µM in the test with MALME-3M melanoma; 1.77 µM in the test with SNB-75 CNS; 3.17 µM with SR leukemia; 1.7 µM in the test with TK-10 renal. For the same compound, the GI50 in the test with A549 NSCLC is 1.78 µM; in the test on NCI-H522 lung, 1.9 µM. Moreover, the TGI with NCI-H23 lung is 3.55 µM; in the test with SW-620 colon, 3.31 µM; with MALME-3M melanoma, 3.63 µM; in the test on SNB-75 CNS, 3.74 µM; with SR leukemia it was greater than 100 µM; in the test on TK-10 renal, 3.32 µM. The TGI in the test on A549 NSCLC turned out to be 3.38 µM; with NCI-H522 lung it was 3.64 µM.
On to `O=[N+]([O-])c1cc([As](Br)c2ccc(O)c([N+](=O)[O-])c2)ccc1O`, for which the TGI is 4.37 µM with NCI-H23 lung; 3.56 µM with SW-620 colon; 2.38 µM in the test with MALME-3M melanoma; 3.62 µM in the test with SNB-75 CNS; 0.566 µM with SR leukemia; 3.14 µM with TK-10 renal. Further, the TGI in the test with A549 NSCLC came out at 7.02 µM; in the test with NCI-H522 lung, 0.45 µM.
In the case of `CCn1cc(/C=C2\Oc3cc(OCC#N)ccc3C2=O)c2cc(OC)ccc21`, the GI50 in the test with NCI-H23 lung is 0.553 µM; in the test with SW-620 colon, 0.131 µM; in the test on SNB-75 CNS, 0.527 µM; in the test on SR leukemia it was 0.102 µM; in the test on TK-10 renal, 18.1 µM; with A549 NSCLC it was 2.48 µM. In addition, the GI50 in the test with NCI-H522 lung is 2.46 µM. The TGI with NCI-H23 lung was greater than 80.8 µM; with SW-620 colon, greater than 100 µM; in the test on MALME-3M melanoma, greater than 70.7 µM; with SR leukemia it was greater than 100 µM; with TK-10 renal, greater than 64.1 µM; with A549 NSCLC, greater than 100 µM. In addition, in the test with NCI-H522 lung, the TGI came to 28.5 µM.
In the case of `COc1ccc2c(c1)CN([C@@H](C)[C@H]1CC[C@H]3[C@@H]4CC[C@H]5C[C@@H](O)CC[C@]5(C)[C@H]4CC[C@]13C)CO2`, the TGI with NCI-H23 lung is 5.12 µM; in the test on SW-620 colon it was greater than 23.6 µM; in the test with MALME-3M melanoma it was 3.47 µM; in the test on SNB-75 CNS it was 4.94 µM; with SR leukemia, 2.61 µM; with TK-10 renal, 8.32 µM. The figures for the TGI with A549 NSCLC and in the test with NCI-H522 lung were 4.51 µM and 4.21 µM, respectively.
With `c1ccc(-c2nc3n(c2-c2ccc4c(c2)OCO4)CCC3)nc1`, the GI50 in the test on NCI-H23 lung is 9.59 µM; in the test on SW-620 colon, 8.47 µM; with MALME-3M melanoma, 8.19 µM; in the test with SNB-75 CNS, 6.42 µM; in the test on SR leukemia it was 9.49 µM; in the test with TK-10 renal, 1.41 µM. Also, the GI50 was 5.88 µM with A549 NSCLC and 8.14 µM with NCI-H522 lung. The TGI in the test on NCI-H23 lung was greater than 25 µM; in the test with SW-620 colon, greater than 25 µM; in the test with MALME-3M melanoma, greater than 23.4 µM; in the test with SNB-75 CNS it was greater than 25 µM; with SR leukemia, greater than 25 µM; in the test on TK-10 renal, greater than 23.6 µM. The TGI with A549 NSCLC and with NCI-H522 lung was greater than 25 µM in each case.
In the case of `N=c1ccc2nc3ccc(N)cc3sc-2c1`, the GI50 is 2.77 µM in the test with NCI-H23 lung; 3.92 µM in the test with SW-620 colon; 6.22 µM with MALME-3M melanoma; 3.77 µM with SNB-75 CNS; 4.65 µM in the test on SR leukemia; 11.7 µM in the test with TK-10 renal. Further, the GI50 with A549 NSCLC was 3.43 µM; in the test with NCI-H522 lung, 2.24 µM. The TGI is 14.3 µM with NCI-H23 lung; 23.5 µM in the test with SW-620 colon; 32.5 µM in the test on MALME-3M melanoma; 16.4 µM with SNB-75 CNS; greater than 100 µM in the test with SR leukemia; 35.5 µM with TK-10 renal. For the same compound, the TGI in the test with A549 NSCLC was greater than 100 µM; in the test on NCI-H522 lung, 7 µM.
